# From paper PMC4522657, “Identification of a DYRK1A Inhibitor that Induces Degradation of the Target Kinase using Co-chaperone CDC37 fused with Luciferase nanoKAZ” (Scientific Reports, 2015)
# Columns and labels:
# Experiment in all cases: Kinase panel, CaNDY 1 µM
# Type in all cases: biochemical
# Settings in all cases: CaNDY 1 µM relative to DMSO
# HER4 = biological target: T1, HER4 (Homo sapiens, UniProt Q15303)
# T1 construct: purchased Carna Biosciences
# From the text: (§1) Detailed information on the assay conditions is available on the website of Carna Biosciences (http://www.carnabio.com/english/index.html; Kobe, Japan). In brief, full-length human recombinant kinases were expressed using a baculovirus expression system as amino-terminal GST-fusion proteins, and purified by glutathione-Sepharose chromatography. The GenBank accession numbers of DYRK1A, DYRK1B, DYRK2, and DYRK3 were NP_001387.2, NP_004705.1, NP_003574.1, and NP_003573.2. Kinase activities were evaluated by Off-chip Mobility Shift Assay after reaction of 1 μM of the substrate DYRKtide-F with ATP (25 μM for DYRK1A, 50 μM for DYRK1B, 10 μM for DYRK2, and 5 μM for DYRK3). For each compound, a DMSO solution was diluted in assay buffer to yield a final concentration of 1% DMSO. After incubation for one hour at room temperature, substrate phosphorylation was analyzed by electrophoretic separation of the substrate and products using a Caliper LC3000 platform (Caliper Life Sciences, Mountain View, CA, USA). The phosphorylated product (P)/(P + substrate) ratio was calculated at each concentration of each small molecule and the percent inhibition was expressed relative to a control assay in the absence of the small molecule. […] The IC50 of each compound was calculated by interpolation on a log-concentration-response curve fitted with a four-parameter logistic equation.
# (§2) All kinase assays were carried out at Carna Biosciences. The inhibitory map was made with Kinome Render[36].
# LYNa = biological target: T2, LYNa (Homo sapiens, UniProt P07948)
# T2 construct: purchased Carna Biosciences
# From the text: as §1, §2
# PKN1 = biological target: T3, PKN1 (Homo sapiens, UniProt Q16512)
# T3 construct: purchased Carna Biosciences
# From the text: as §1, §2
# MRCKβ = biological target: T4, MRCKβ (Homo sapiens, UniProt Q9Y5S2)
# T4 construct: purchased Carna Biosciences
# From the text: as §1, §2
# CDK7/CycH/MAT1 = biological target: T5, CDK7/CycH/MAT1 (Homo sapiens, UniProt P50613)
# T5 construct: purchased Carna Biosciences
# From the text: as §1, §2
# RSK3 = biological target: T6, RSK3 (Homo sapiens, UniProt Q15349)
# T6 construct: purchased Carna Biosciences
# From the text: as §1, §2
# EPHB1 = biological target: T7, EPHB1 (Homo sapiens, UniProt P54762)
# T7 construct: purchased Carna Biosciences
# From the text: as §1, §2
# FGFR2 = biological target: T8, FGFR2 (Homo sapiens, UniProt P21802)
# T8 construct: purchased Carna Biosciences
# From the text: as §1, §2
# CDK6/CycD3 = biological target: T9, CDK6/CycD3 (Homo sapiens, UniProt Q00534)
# T9 construct: purchased Carna Biosciences
# From the text: as §1, §2
# DYRK3 = biological target: T10, DYRK3 (Homo sapiens, UniProt O43781)
# T10 construct: purchased Carna Biosciences
# From the text: as §1, §2
# EEF2K = biological target: T11, EEF2K (Homo sapiens, UniProt O00418)
# T11 construct: purchased Carna Biosciences
# From the text: as §1, §2
# ROCK1 = biological target: T12, ROCK1 (Homo sapiens, UniProt Q13464)
# T12 construct: purchased Carna Biosciences
# From the text: as §1, §2
# PKCε = biological target: T13, PKCε (Homo sapiens, UniProt Q02156)
# T13 construct: purchased Carna Biosciences
# From the text: as §1, §2
# EGFR(L858R) = biological target: T14, EGFR(L858R) (Homo sapiens, UniProt P00533, L858R)
# T14 construct: purchased Carna Biosciences
# From the text: as §1, §2
# HIPK2 = biological target: T15, HIPK2 (Homo sapiens, UniProt Q9H2X6)
# T15 construct: purchased Carna Biosciences
# From the text: as §1, §2
# IGF1R = biological target: T16, IGF1R (Homo sapiens, UniProt P08069)
# T16 construct: purchased Carna Biosciences
# From the text: as §1, §2
# MARK2 = biological target: T17, MARK2 (Homo sapiens, UniProt Q7KZI7)
# T17 construct: purchased Carna Biosciences
# From the text: as §1, §2
# FGFR3(K650M) = biological target: T18, FGFR3(K650M) (Homo sapiens, UniProt P22607, K650M)
# T18 construct: purchased Carna Biosciences
# From the text: as §1, §2
# PKD2 = biological target: T19, PKD2 (Homo sapiens, UniProt Q9BZL6)
# T19 construct: purchased Carna Biosciences
# From the text: as §1, §2
# ALK(R1275Q) = biological target: T20, ALK(R1275Q) (Homo sapiens, UniProt Q9UM73, R1275Q)
# T20 construct: purchased Carna Biosciences
# From the text: as §1, §2
# DYRK2 = biological target: T21, DYRK2 (Homo sapiens, UniProt Q92630)
# T21 construct: purchased Carna Biosciences
# From the text: as §1, §2
# PIM3 = biological target: T22, PIM3 (Homo sapiens, UniProt Q86V86)
# T22 construct: purchased Carna Biosciences
# From the text: as §1, §2
# LOK = biological target: T23, LOK (Homo sapiens, UniProt O94804)
# T23 construct: purchased Carna Biosciences
# From the text: as §1, §2
# CK1α = biological target: T24, CK1α (Homo sapiens, UniProt P48729)
# T24 construct: purchased Carna Biosciences
# From the text: as §1, §2
# CaMK4 = biological target: T25, CaMK4 (Homo sapiens, UniProt Q16566)
# T25 construct: purchased Carna Biosciences
# From the text: as §1, §2
# PDGFRα = biological target: T26, PDGFRα (Homo sapiens, UniProt P16234)
# T26 construct: purchased Carna Biosciences
# From the text: as §1, §2
# NDR1 = biological target: T27, NDR1 (Homo sapiens, UniProt Q15208)
# T27 construct: purchased Carna Biosciences
# From the text: as §1, §2
# PAK3 = biological target: T28, PAK3 (Homo sapiens, UniProt O75914)
# T28 construct: purchased Carna Biosciences
# From the text: as §1, §2
# RET(M918T) = biological target: T29, RET(M918T) (Homo sapiens, UniProt P07949, M918T)
# T29 construct: purchased Carna Biosciences
# From the text: as §1, §2
# EGFR(L861Q) = biological target: T30, EGFR(L861Q) (Homo sapiens, UniProt P00533, L861Q)
# T30 construct: purchased Carna Biosciences
# From the text: as §1, §2
# EML4-ALK = biological target: T31, EML4-ALK (Homo sapiens, UniProt Q9UM73)
# T31 construct: purchased Carna Biosciences
# From the text: as §1, §2
# MARK3 = biological target: T32, MARK3 (Homo sapiens, UniProt P27448)
# T32 construct: purchased Carna Biosciences
# From the text: as §1, §2
# CaMK2δ = biological target: T33, CaMK2δ (Homo sapiens, UniProt Q13557)
# T33 construct: purchased Carna Biosciences
# From the text: as §1, §2
# MRCKα = biological target: T34, MRCKα (Homo sapiens, UniProt Q5VT25)
# T34 construct: purchased Carna Biosciences
# From the text: as §1, §2
# NuaK1 = biological target: T35, NuaK1 (Homo sapiens, UniProt O60285)
# T35 construct: purchased Carna Biosciences
# From the text: as §1, §2
# T23 sequence (O94804 whole entry): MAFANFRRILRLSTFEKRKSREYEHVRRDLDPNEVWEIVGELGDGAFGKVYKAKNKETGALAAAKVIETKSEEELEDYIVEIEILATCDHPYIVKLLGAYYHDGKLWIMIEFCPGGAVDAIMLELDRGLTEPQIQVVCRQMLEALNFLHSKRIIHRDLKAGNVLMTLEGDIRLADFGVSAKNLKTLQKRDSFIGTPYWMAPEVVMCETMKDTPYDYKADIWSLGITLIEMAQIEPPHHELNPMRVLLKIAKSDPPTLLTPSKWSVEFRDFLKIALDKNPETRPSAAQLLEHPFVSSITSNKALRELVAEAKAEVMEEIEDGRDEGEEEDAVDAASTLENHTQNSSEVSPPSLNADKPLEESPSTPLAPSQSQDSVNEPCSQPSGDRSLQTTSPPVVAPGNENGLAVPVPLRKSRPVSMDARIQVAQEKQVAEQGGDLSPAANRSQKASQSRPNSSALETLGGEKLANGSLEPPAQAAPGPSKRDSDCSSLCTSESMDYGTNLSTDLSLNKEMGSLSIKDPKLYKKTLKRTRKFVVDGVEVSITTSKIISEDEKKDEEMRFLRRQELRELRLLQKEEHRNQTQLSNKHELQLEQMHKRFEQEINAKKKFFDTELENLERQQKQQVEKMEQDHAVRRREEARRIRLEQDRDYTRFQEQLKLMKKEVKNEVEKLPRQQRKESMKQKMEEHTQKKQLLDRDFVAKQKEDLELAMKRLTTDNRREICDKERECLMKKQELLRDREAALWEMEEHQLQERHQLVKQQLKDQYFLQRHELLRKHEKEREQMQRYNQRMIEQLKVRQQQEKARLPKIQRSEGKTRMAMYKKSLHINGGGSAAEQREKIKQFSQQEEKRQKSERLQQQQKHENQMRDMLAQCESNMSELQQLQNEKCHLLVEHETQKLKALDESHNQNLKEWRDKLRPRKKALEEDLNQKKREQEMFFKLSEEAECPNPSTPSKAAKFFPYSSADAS
# T4 sequence (Q9Y5S2 whole entry): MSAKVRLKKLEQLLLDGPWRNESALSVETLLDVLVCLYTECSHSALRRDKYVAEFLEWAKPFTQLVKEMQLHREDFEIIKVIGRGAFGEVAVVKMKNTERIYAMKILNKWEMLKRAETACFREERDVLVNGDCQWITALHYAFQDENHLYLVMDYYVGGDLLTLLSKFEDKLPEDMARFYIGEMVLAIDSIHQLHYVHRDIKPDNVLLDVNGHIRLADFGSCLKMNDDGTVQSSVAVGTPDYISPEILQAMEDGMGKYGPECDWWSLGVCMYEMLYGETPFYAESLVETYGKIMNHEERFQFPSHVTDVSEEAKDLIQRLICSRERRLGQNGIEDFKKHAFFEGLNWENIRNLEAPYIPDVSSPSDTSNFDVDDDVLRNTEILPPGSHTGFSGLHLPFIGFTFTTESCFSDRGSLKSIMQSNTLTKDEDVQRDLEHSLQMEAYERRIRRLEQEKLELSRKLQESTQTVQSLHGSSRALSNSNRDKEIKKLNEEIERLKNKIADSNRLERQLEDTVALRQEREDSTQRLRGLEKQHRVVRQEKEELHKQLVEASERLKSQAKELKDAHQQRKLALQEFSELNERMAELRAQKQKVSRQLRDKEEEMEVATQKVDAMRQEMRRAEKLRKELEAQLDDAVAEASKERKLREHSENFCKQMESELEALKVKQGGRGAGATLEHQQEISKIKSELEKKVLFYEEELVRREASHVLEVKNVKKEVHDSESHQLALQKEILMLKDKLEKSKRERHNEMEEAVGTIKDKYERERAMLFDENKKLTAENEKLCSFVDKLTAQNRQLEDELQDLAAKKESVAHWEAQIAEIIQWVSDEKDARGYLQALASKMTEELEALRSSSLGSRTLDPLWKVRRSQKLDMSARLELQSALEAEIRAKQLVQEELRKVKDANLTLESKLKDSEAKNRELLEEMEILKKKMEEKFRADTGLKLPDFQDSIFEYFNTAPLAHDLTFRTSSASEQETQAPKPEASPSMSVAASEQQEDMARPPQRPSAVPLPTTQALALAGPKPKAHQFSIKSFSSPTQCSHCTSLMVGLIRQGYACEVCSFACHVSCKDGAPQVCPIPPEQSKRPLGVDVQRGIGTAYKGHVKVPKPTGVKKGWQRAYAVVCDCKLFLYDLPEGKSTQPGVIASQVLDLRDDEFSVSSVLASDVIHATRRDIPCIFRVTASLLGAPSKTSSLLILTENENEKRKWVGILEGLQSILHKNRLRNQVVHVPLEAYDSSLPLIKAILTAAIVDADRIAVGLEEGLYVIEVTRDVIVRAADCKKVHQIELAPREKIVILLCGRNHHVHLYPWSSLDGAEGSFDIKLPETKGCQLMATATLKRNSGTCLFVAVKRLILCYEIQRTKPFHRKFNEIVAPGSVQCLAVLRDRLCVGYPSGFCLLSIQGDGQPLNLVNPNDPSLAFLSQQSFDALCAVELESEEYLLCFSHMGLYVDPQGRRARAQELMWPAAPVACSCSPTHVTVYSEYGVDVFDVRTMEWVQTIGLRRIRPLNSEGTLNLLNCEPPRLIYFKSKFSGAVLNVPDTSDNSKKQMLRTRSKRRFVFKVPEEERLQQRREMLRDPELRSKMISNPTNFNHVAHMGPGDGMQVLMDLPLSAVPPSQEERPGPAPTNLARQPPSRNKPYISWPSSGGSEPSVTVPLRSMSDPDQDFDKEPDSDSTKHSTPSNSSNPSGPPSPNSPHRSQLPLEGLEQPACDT
# T31 sequence (Q9UM73 whole entry, looked up): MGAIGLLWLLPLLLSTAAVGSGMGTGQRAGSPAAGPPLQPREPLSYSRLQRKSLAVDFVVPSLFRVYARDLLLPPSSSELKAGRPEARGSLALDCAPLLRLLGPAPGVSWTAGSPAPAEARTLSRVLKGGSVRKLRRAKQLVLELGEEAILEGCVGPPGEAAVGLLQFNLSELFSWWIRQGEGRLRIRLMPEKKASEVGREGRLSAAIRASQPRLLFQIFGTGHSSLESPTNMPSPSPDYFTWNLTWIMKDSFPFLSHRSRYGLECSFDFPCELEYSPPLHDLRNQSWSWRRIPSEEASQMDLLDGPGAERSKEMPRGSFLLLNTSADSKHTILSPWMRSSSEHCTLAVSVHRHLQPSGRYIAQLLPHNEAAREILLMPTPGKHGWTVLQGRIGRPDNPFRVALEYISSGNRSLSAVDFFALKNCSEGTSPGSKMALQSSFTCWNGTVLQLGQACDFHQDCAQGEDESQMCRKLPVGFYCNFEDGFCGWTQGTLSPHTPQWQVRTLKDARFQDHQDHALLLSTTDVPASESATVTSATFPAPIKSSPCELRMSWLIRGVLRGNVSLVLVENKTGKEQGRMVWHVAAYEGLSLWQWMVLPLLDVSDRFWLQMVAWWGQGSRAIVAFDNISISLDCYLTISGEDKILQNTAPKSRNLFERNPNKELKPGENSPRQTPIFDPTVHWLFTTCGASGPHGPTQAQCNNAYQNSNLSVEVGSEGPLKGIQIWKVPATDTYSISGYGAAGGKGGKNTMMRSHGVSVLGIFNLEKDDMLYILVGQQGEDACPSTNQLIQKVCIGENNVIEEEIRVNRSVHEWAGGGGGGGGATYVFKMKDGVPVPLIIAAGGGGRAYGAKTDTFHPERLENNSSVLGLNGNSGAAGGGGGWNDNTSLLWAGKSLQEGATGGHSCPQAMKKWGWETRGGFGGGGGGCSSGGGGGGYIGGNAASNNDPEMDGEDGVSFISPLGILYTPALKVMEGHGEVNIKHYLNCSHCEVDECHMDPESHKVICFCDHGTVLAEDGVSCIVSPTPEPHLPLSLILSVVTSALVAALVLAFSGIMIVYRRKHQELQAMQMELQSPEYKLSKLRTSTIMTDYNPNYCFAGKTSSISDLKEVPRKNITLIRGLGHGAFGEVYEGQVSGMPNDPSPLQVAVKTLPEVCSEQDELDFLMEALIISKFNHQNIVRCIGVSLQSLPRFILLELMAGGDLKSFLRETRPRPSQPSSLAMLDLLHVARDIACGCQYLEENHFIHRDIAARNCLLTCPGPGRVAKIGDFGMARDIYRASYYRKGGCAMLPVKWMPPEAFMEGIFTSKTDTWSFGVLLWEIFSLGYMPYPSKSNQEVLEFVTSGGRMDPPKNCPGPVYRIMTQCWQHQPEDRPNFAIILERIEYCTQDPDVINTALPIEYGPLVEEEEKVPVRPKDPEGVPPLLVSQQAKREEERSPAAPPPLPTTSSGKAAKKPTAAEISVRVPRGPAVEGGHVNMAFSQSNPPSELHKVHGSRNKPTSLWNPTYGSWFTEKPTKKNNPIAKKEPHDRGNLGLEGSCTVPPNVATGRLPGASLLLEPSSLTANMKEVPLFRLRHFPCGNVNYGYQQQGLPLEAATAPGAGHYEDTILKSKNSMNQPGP
# T8 sequence (P21802 22-821): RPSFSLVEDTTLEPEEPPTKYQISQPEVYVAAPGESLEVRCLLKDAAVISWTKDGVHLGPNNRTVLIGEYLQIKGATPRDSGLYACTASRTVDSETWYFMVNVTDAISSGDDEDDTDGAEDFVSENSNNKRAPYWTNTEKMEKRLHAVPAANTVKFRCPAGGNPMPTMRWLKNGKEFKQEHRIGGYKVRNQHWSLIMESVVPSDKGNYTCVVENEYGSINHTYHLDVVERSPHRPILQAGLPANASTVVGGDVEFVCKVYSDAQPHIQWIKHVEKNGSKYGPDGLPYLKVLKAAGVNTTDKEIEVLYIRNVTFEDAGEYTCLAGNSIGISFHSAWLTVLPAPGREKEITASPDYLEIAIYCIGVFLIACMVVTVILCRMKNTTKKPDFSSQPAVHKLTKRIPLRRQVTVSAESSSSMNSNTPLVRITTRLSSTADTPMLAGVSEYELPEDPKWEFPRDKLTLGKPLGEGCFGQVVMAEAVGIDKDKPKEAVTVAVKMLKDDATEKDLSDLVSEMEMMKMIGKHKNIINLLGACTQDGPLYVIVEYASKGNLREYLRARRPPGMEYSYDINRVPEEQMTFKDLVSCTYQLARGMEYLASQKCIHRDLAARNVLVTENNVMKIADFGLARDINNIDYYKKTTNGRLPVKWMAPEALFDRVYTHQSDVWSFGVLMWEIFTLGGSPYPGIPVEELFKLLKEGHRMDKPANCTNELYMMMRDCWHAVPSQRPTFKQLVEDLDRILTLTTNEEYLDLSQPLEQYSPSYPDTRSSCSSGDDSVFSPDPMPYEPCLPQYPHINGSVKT
compound,measurement,setting,value
"[H]/N=C1/NC(=O)C(=Cc2ccc3c(c2)CCO3)S1 [CaNDY, (Z)-5-[(2,3-dihydrobenzofuran-5-yl)methylene]-2-iminothiazolidin-4-one]",remaining activity at 1 µM,HER4,111%
same,remaining activity at 1 µM,LYNa,97.6%
same,remaining activity at 1 µM,PKN1,74.6%
same,remaining activity at 1 µM,MRCKβ,82.5%
same,remaining activity at 1 µM,CDK7/CycH/MAT1,93.6%
same,remaining activity at 1 µM,RSK3,91.4%
same,remaining activity at 1 µM,EPHB1,95.3%
same,remaining activity at 1 µM,FGFR2,104%
same,remaining activity at 1 µM,CDK6/CycD3,97.1%
same,remaining activity at 1 µM,DYRK3,11%
same,remaining activity at 1 µM,EEF2K,97.2%
same,remaining activity at 1 µM,ROCK1,92.5%
same,remaining activity at 1 µM,PKCε,91.9%
same,%Activity,EGFR(L858R),105.7%
same,remaining activity at 1 µM,HIPK2,22.6%
same,remaining activity at 1 µM,IGF1R,101%
same,remaining activity at 1 µM,MARK2,97.5%
same,remaining activity at 1 µM,FGFR3(K650M),101%
same,remaining activity at 1 µM,PKD2,83.3%
same,remaining activity at 1 µM,ALK(R1275Q),98.5%
same,remaining activity at 1 µM,DYRK2,20.3%
same,remaining activity at 1 µM,PIM3,41.4%
same,%Activity,LOK,106.3%
same,remaining activity at 1 µM,CK1α,73.6%
same,remaining activity at 1 µM,CaMK4,103%
same,remaining activity at 1 µM,PDGFRα,84.1%
same,remaining activity at 1 µM,NDR1,91.8%
same,remaining activity at 1 µM,PAK3,109%
same,remaining activity at 1 µM,RET(M918T),102%
same,%Activity,EGFR(L861Q),103.3%
same,remaining activity at 1 µM,EML4-ALK,99.2%
same,remaining activity at 1 µM,MARK3,95%
same,remaining activity at 1 µM,CaMK2δ,89.6%
same,remaining activity at 1 µM,MRCKα,128%
same,%Activity,NuaK1,98.1%
